What was measured:
[1] = test system: adenine-induced renal failure rat; assay: Suppressive effect on rise in serum phosphorus concentration of adenine-induced renal failure rat (0.1% in feed, 3 days); assay type: in vivo; details: feed or water, 72 h, adenine-induced renal failure Wistar male rat, test compound 0.1% of mass concentration in feed for 3 days, Fiske-Subbarow method, read-out: rate (%) of suppression of a rise in serum phosphorus concentration
Description: Adenine was forcedly administered orally to each Wistar male rat (7-8 weeks old) to impair renal functions and thereby prepare a hyperphosphatemia model ([…], Nagano N, Burke SK, Fukushima N. Sevelamer hydrochloride prevents ectopic calcification and renal osteodystrophy in chronic renal failure rats. Kidney Int. 2003 Aug; 64 (2): 441-50). Each test compound was mixed at a ratio of 0.1% of mass concentration with feed. The animal was fed with a given amount of the feed for 3 days. A group given feed non-supplemented with a test compound was used as a reference pathological group, and an adenine-unadministered group given feed non-supplemented with a test compound was used as a normal group. 3 days after the start of administration of the test compound, blood was collected from the jugular vein, and serum was collected. Serum phosphorus concentrations were measured by the Fiske-Subbarow method. The rate of suppression of a rise in serum phosphorus concentration was determined according to the following expression: Rate (%) of suppression of a rise in serum phosphorus concentration = (1-[(Serum phosphorus concentration of the test compound-treated pathological group)-(Serum phosphorus concentration of the normal group)]/[(Serum phosphorus concentration of the reference pathological group)-(Serum phosphorus concentration of the normal group)]) × 100 [formula] As a result, each test compound was confirmed to have a suppressive effect on a rise in serum phosphorus concentration. […]

[2] = test system: rat small-intestinal brush border membrane vesicles; assay: Inhibitory effect on 33PO4 uptake into rat small-intestinal brush border membrane vesicles (rapid filtration method); assay type: biochemical; details: 33PO4 uptake into rat small-intestinal BBMVs; test compound 1 µM; reacted for 60 seconds
Summary of the method: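 Uptake of ^33PO4 was measured by rapid filtration and liquid scintillation counting of filter-retained vesicles, after quenching with ice-cold 110 mM NaCl/1 mM KH2PO4/10 mM HEPES pH 7.5. Vesicles were brush border membranes from the upper small intestine of female Wistar rats aged 4–5 weeks.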

Compound	inhibition in vivo at 0.1 % in feed [1]	Rate of uptake inhibition (%) (1 µM) [2]
C[C@]12CCCN1N(Cc1ccc(OCCN3CCOCC3)c(F)c1F)C(=O)C(C(=O)Nc1ccc(C(F)(F)F)cc1-c1cc(C(F)(F)F)ncn1)=C2O [Example 157, (4aR)-1-[[2,3-Difluoro-4-(2-morpholin-4-ylethoxy)phenyl]methyl]-4-hydroxy-4a-methyl-2-oxo-N-[4-(trifluoromethyl)-2-[6-(trifluoromethyl)pyrimidin-4-yl]phenyl]-6,7-dihydro-5H-pyrrolo[1,2-b]pyridazine-3-carboxamide]	30%	89%
C[C@]12CCCN1N(Cc1ccc(CN3CCOCC3)c(F)c1F)C(=O)C(C(=O)Nc1ccc(C(F)(F)F)cc1-c1ccc(C(F)(F)F)nc1)=C2O.Cl [Example 164, (4aR)-1-[[2,3-Difluoro-4-(morpholin-4-ylmethyl)phenyl]methyl]-4-hydroxy-4a-methyl-2-oxo-N-[4-(trifluoromethyl)-2-[6-(trifluoromethyl)pyridin-3-yl]phenyl]-6,7-dihydro-5H-pyrrolo[1,2-b]pyridazine-3-carboxamide; hydrochloride]	14%	64%
C[C@]12CCCN1N(Cc1cccc(Cl)c1F)C(=O)C(C(=O)Nc1cc(F)c(Br)c(F)c1)=C2O [Example 196, (4aR)-N-(4-Bromo-3,5-difluorophenyl)-1-[(3-chloro-2-fluorophenyl)methyl]-4-hydroxy-4a-methyl-2-oxo-6,7-dihydro-5H-pyrrolo[1,2-b]pyridazine-3-carboxamide]	35%	90%
CN1[C@@H](C(C)(C)C)C(O)=C(C(=O)Nc2ccc(C(F)(F)F)cc2-c2cc(C(F)(F)F)ncn2)C(=O)N1Cc1ccc(OCCN2CCOCC2)c(F)c1F [Example 264, (3S)-3-tert-Butyl-1-[[2,3-difluoro-4-(2-morpholin-4-ylethoxy)phenyl]methyl]-4-hydroxy-2-methyl-6-oxo-N-[4-(trifluoromethyl)-2-[6-(trifluoromethyl)pyrimidin-4-yl]phenyl]-3H-pyridazine-5-carboxamide]	15%	48%
CN1[C@@H](C(C)(C)C)C(O)=C(C(=O)Nc2ccc(Cl)cc2-c2ccc(C(F)(F)F)nc2)C(=O)N1Cc1ccc(OCCN2CCOCC2)c(F)c1F [Example 267, (3S)-3-tert-Butyl-N-[4-chloro-2-[6-(trifluoromethyl)pyridin-3-yl]phenyl]-1-[[2,3-difluoro-4-(2-morpholin-4-ylethoxy)phenyl]methyl]-4-hydroxy-2-methyl-6-oxo-3H-pyridazine-5-carboxamide]	18%	71%
CSc1ccc(-c2cc(Cl)ccc2NC(=O)C2=C(O)[C@H](C(C)(C)C)N(C)N(Cc3ccc(OCCN4CCOCC4)c(F)c3F)C2=O)cn1 [Example 269, (3S)-3-tert-Butyl-N-[4-chloro-2-(6-methylsulfanylpyridin-3-yl)phenyl]-1-[[2,3-difluoro-4-(2-morpholin-4-ylethoxy)phenyl]methyl]-4-hydroxy-2-methyl-6-oxo-3H-pyridazine-5-carboxamide]	15%	80%
Cc1c(C#N)ncnc1-c1cc(C(F)(F)F)ccc1NC(=O)C1=C(O)[C@H](C(C)(C)C)N(C)N(Cc2ccc(OCCN3CCOCC3)c(F)c2F)C1=O [Example 270, (3S)-3-tert-Butyl-N-[2-(6-cyano-5-methylpyrimidin-4-yl)-4-(trifluoromethyl)phenyl]-1-[[2,3-difluoro-4-(2-morpholin-4-ylethoxy)phenyl]methyl]-4-hydroxy-2-methyl-6-oxo-3H-pyridazine-5-carboxamide]	20%	75%
CN1N(Cc2ccc(OCCN3CCOCC3)c(F)c2F)C(=O)C(C(=O)Nc2ccc(C(F)(F)F)cc2-c2cc(C(F)(F)F)ncn2)=C(O)C12CCC2 [Example 317, 6-[[2,3-Difluoro-4-(2-morpholin-4-ylethoxy)phenyl]methyl]-9-hydroxy-5-methyl-7-oxo-N-[4-(trifluoromethyl)-2-[6-(trifluoromethyl)pyrimidin-4-yl]phenyl]-5,6-diazaspiro[3.5]non-8-ene-8-carboxamide]	22%	57%
CN1N(Cc2ccc(OCCCCC(=O)O)c(F)c2F)C(=O)C(C(=O)Nc2ccc(C(F)(F)F)cc2-c2cc(C(F)(F)F)ncn2)=C(O)C12CCCC2 [Example 333, 5-[2,3-Difluoro-4-[[10-hydroxy-6-methyl-8-oxo-9-[[4-(trifluoromethyl)-2-[6-(trifluoromethyl)pyrimidin-4-yl]phenyl]carbamoyl]-6,7-diazaspiro[4.5]dec-9-en-7-yl]methyl]phenoxy]pentanoic acid]	8%	29%
COC[C@@H]1CCCN1CCOc1ccc(CN2C(=O)C(C(=O)Nc3ccc(C(F)(F)F)cc3-c3cc(C(F)(F)F)ncn3)=C(O)C3(CCC3)N2C)c(F)c1F [Example 345, 6-[[2,3-Difluoro-4-[2-[(2S)-2-(methoxymethyl)pyrrolidin-1-yl]ethoxy]phenyl]methyl]-9-hydroxy-5-methyl-7-oxo-N-[4-(trifluoromethyl)-2-[6-(trifluoromethyl)pyrimidin-4-yl]phenyl]-5,6-diazaspiro[3.5]non-8-ene-8-carboxamide]	19%	73%

From EP3928779A1 (Chugai Seiyaku Kabushiki Kaisha, priority 2014, dated 2016)
